PubChem BioAssay AID1259335
pEC50: −log10 of the molar value.

Tested on: C. elegans L1 growth, INVAPP imaging, 5 days
Experiment: C. elegans growth inhibition, confirmation, whole organism (AID 1259335)

SMILES | pEC50
O=C(Nc1ccc(F)c(-c2nc3ncc(-c4ccccc4)cc3[nH]2)c1)N1CCCC1 | 5.48
COC(=O)Nc1nc2ccc(C(=O)c3ccccc3)cc2[nH]1 | 5.96
Nc1ccc(C(=O)Nc2ccc(-c3nc4ccccc4o3)cc2)cc1 | 5.21
CCc1nn(C)c(C(=O)NCc2ccc(Oc3ccc(C)cc3)cc2)c1Cl | 6.70
Cc1cc(C(=O)Nc2ccc(-c3ccccc3)cc2)no1 | 5.60
COC(=O)C1=C(C)NC(C)=C(C(=O)OC(C)C)[C@H]1c1cccc2nonc12 | 5.80
O=C(Nc1ccc2c(c1)B(O)OC2)c1ccccc1C(F)(F)F | 5.37
